This is an account of results in patent US9718851B2, “Deuterated nucleoside/tide derivatives” (Enanta Pharmaceuticals, Inc., priority 2014, dated 2017).

Molecules are shown by their SMILES.

The assay relates to HCV replicon RNA, genotype 1a (Huh-1a7 replicon cell line). As to the kind of experiment: HCV Replicon Assay - qRT-PCR, genotype 1a replicon. It is filed as cell-based, HCV (strain H77. The conditions noted are these: Hepatitis C virus; HCV genotype 1a replicon, HCV RNA by qRT-PCR normalized to GAPDH RNA. From the text: HCV replicon cell lines (kindly provided by R. Bartenschlager) isolated from colonies as described by Lohman et al. (Lohman et al. (1999) Science 285: 110-113, expressly incorporated by reference in its entirety) and used for all experiments. One of the HCV replicon cell lines (strain Conl, genotype 1b) has the nucleic acid sequence set forth in EMBL Accession No.: AJ242651, the coding sequence of which is from nucleotides 1801 to 8406. Another replicon cell line (strain H77, genotype 1a) was constructed as described by Yi et al. (Yi et al. (2004) Journal of Virology 78(15):7904-15). The coding sequences of the published HCV replicons were synthesized and subsequently assembled in plasmids using standard molecular biology techniques.
One replicon cell line (“SGR 11-7”) stably expresses HCV replicon RNA, genotype 1b, which consists of (i) the HCV 5′UTR fused to the first 12 amino acids of the capsid protein, (ii) the neomycin phosphotransferase gene (neo), (iii) the IRES from encephalomyocarditis virus (EMCV), and (iv) HCV NS2 to NS5B genes and the HCV 3′UTR. Another replicon cell line (“Huh-1a7”) described by Yi et al. (Yi et al. (2004) Journal of Virology 78(15):7904-15, expressly incorporated by reference in its entirety) stably expresses HCV replicon RNA, genotype 1a, which consists of (i) the HCV 5′UTR fused to the first 12 amino acids of the capsid protein, (ii) the HIV tat protein, (iii) the neomycin phosphotransferase gene (neo), (iv) the IRES from encephalomyocarditis virus (EMCV), and (v) HCV NS3 to NS5B genes that harbor cell culture adaptive mutations (Q1067R, K1691R, S2204I) and the HCV 3′UTR. […]
EC50 values of single agent compounds were determined by HCV RNA detection using quantitative RT-PCR, according to the manufacturer's instructions, with a TAQMAN® One-Step RT-PCR Master Mix Reagents Kit (Cat# AB 4309169, Applied Biosystems) on an ABI Model 7500 thermocycler. EC50 values of combinations are similarly determined by HCV RNA detection using quantitative RT-PCR. The TAQMAN primers to use for detecting and quantifying HCV RNA obtained from Integrated DNA Technologies. HCV RNA is normalized to GAPDH RNA levels in drug-treated cells, which is detected and quantified using the Human GAPDH Endogenous Control Mix (Applied Biosystems, AB 4310884E). […] Chemical agent cytotoxicity is evaluated using an MTS assay according to the manufacturer's directions (Promega). […]

`[2H][C@@]1(O)[C@@H](CO[P@@](=O)(N[C@@H](C)C(=O)OC(C)C)Oc2ccccc2)O[C@@H](n2ccc(=O)[nH]c2=O)[C@]1(C)F` [Example 1]: the EC50 lay within 100 to 1000 nM. Take `[2H][C@]1(CO[P@@](=O)(N[C@@H](C)C(=O)OC(C)C)Oc2ccccc2)O[C@@H](n2ccc(=O)[nH]c2=O)[C@](C)(F)[C@@H]1O` [Example 2]: the half-maximal effective concentration (EC50) lay within 100 to 1000 nM. Turning to `[2H]C([2H])(O[P@@](=O)(N[C@@H](C)C(=O)OC(C)C)Oc1ccccc1)[C@H]1O[C@@H](n2ccc(=O)[nH]c2=O)[C@](C)(F)[C@@H]1O` [Example 3], the EC50 lay within 100 to 1000 nM. Turning to `[2H]C([2H])(O[P@@](=O)(N[C@@H](C)C(=O)OC(C)C)Oc1ccccc1)[C@@]1([2H])O[C@@H](n2ccc(=O)[nH]c2=O)[C@](C)(F)[C@@H]1O` [Example 4], the EC50 lay in the range of 100 to 1000 nM.
